System: EGFR1
Assay: EGFR1 expression level in cultured HCT116-C9 (mass spectrometry, 12C/13C-leucine labelling)
Type: cell-based, human
Settings: HCT116-C9, 1 μM E7070, 24 hours, LC-MS/MS, treated/untreated
Protocol: First, RPMI-1640 (containing 10% FBS) supplemented with ^13C-labeled L-leucine (^13C-leucine, Cambridge Isotope Labs) and RPMI-1640 (containing 10% FBS) supplemented with non-isotope-labeled L-leucine (^12C-leucine) were prepared. Then, human colon cancer cell line HCT116-C9 was cultured in each medium through at least the fifth passage. HCT116-C9 was a subline separated from human colon cancer cell line HCT116 (obtained from ATCC) and known as a cell line highly sensitive to […] (Molecular Cancer Therapeutics, 2002, 1, 275-286). Thereafter, each cell was seeded in a 15-cm-diameter culture dish at a concentration of 1.0×10^7 cells/50 ml. Then, 24 hours later, 1 μM of […] was added to HCT116-C9 cultured in the ^12C-leucine-containing medium and nothing was added to HCTZ 16-C9 cultured in the ^13C-leucine-containing medium. These cells were continued culturing. Twenty-four hours later, the cells were washed twice with a phosphate buffer saline according to a routine procedure, added with 3 ml of M-PER (PIERCE) to solubilize the cells and then equal amounts of them were mixed. The cell lysates were dialyzed by a routine procedure to sublimate the solutions, and digested with trypsin, thereby obtaining peptide samples. The resulting peptide samples were analyzed with LC-MS/MS. […]

SMILES | Peak intensity ratio (12C/13C) of EGFR1-derived peptide fragment
NS(=O)(=O)c1ccc(S(=O)(=O)Nc2cccc3c(Cl)c[nH]c23)cc1 [E7070, N-(3-chloro-1H-indole-7-yl)-1,4-benzenedisulfonamide] | 0.6-0.8

System: cancer cell line resistant to E7070
Assay: not given
Settings: WO2006/030941 and WO2006/030947; cited from earlier work

SMILES | Cross-resistance of E7070-resistant cancer cell line (antiproliferative activity)
Nc1ccc(S(=O)(=O)Nc2cnc3c(Cl)cccc3n2)cc1 [CQS, 2-sulfanylamide-5-chloroquinoxaline] | cross-resistance
O=C(Nc1ccc(Cl)cc1)NS(=O)(=O)c1ccc2c(c1)CCC2 [LY186641, N-[[(4-chlorophenyl)amino]carbonyl]-2,3-dihydro-1H-indene-5-sulfonamide] | cross-resistance
O=C(Nc1ccc(Cl)c(Cl)c1)NS(=O)(=O)c1ccc2c(c1)CCO2 [LY295501, N-[[(3,4-dichlorophenyl)amino]carbonyl]-2,3-dihydrobenzofuran-5-sulfonamide] | cross-resistance
O=C(NS(=O)(=O)c1ccc(Br)s1)c1ccc(Cl)cc1Cl [LY573636, N-(2,4-dichlorobenzoyl)-5-bromothiophene-2-sulfonamide] | cross-resistance
O=C(NS(=O)(=O)c1ccc(Cl)cc1)c1ccc(Cl)cc1Cl [LY-ASAP, N-(2,4-dichlorobenzoyl)-4-chlorophenylsulfonamide] | cross-resistance
